The assay has as its target T1, Cdk2(2-298) (Homo sapiens, UniProt P24941).
T1 construct: Biotinylated N-terminal avi-tagged Cdk2(2-298) or Cdk1(1-297) was immobilized
The assay can be described thus: Surface Plasmon Resonance (SPR) compound interaction, Biacore 8K. It counts as binding. The conditions noted are these: single-cycle kinetics (SCK, "S"), dissociation 1800 sec, read-out: Activity rating (KD). As to the method: Compound interaction was profiled using a Biacore 8K instrument (Cytiva). Biotinylated N-terminal avi-tagged Cdk2(2-298) or Cdk1(1-297) was immobilized on a series S sensor Chip SA at a capture level between 2500 RU and 3000 RU (Cdk2) or 7000 RU (Cdk1) in buffer (25 mM HEPES, 150 mM NaCl, 0.05% Tween20, pH 7.5). A compound dilution plate (8 concentrations, 3-fold dilution) in DMSO was prepared (100× assay concentration). From this plate, compound DMSO stock solution was transferred into buffer, yielding a final DMSO concentration of 1% in assay. The remaining buffer was supplemented with 1% DMSO. Compounds were injected in a series of increasing concentrations in multi-cycle kinetics (MCK, “M”) or single-cycle kinetics (SCK, “S”) mode at a flow rate of 30 μl/min for 120 sec and dissociation was profiled for 180 sec (MCK) or 1800 sec (SCK). Data were analysed using Biacore Insight Evaluation Software (Cytiva).
For `CN(C)[C@H]1CC[C@H](Nc2nccc(-c3cnccc3Oc3ccc(NS(=O)(=O)c4ccccc4Cl)cc3F)n2)CC1` [Compound 78, N-[4-[[3-[2-[(1r,4r)(4-(N,N-Dimethylamino)cyclohexyl)amino]pyrimidin-4-yl]-4-pyridyl]oxy]-3-fluorophenyl] 2-chlorobenzenesulfonamide], the Kd was in the range of 11 to 100 nM. Under `O=S(=O)(Nc1ccc(Oc2ccncc2-c2ccnc(NCCn3ccnc3)n2)c(F)c1)c1ccccc1Cl` [Compound 95] stands 11 to 100 nM.

As for `N[C@H]1CC[C@H](Nc2nccc(-c3cnccc3Oc3ccc(NS(=O)(=O)c4ccccc4)c(Cl)c3)n2)CC1` [Compound 61, N-[4-[[3-[2-[(1r,4r)(4-Aminocyclohexyl)amino]pyrimidin-4-yl]-4-pyridyl]oxy]-2-chiorophenyl] benzenesulfonamide], the Kd lay within 100 to 1000 nM. Under `N[C@H]1CC[C@H](Nc2nccc(-c3ccccc3Oc3ccc(NS(=O)(=O)c4ccccc4)cc3F)n2)CC1` [Compound 1, N-[4-[2-[2-[(1r,4r)(4-Aminocyclohexyl)amino]pyrimidin-4-yl]phenoxy]-3-fluoro-phenyl] benzenesulfonamide] stands 11 to 100 nM; under `O=S(=O)(Nc1ccc(Oc2ccncc2-c2ccnc(NC3CC4(CNC4)C3)n2)c(F)c1)c1ccccc1Cl` [Compound 92], not above 10 nM; under `CC(C)c1ccc(-c2ccnc(N[C@H]3CC[C@H](N)CC3)n2)c(Oc2ccc(NS(=O)(=O)c3ccccc3Cl)cc2F)c1` [Compound 20, N-[4-[2-[2-[(1r,4r)(4-Aminocyclohexyl)amino]pyrimidin-4-yl]-5-(1-methylethyl)phenoxy]-3-fluorophenyl] 2-chlorobenzenesulfonamide], 11 to 100 nM. Then `O=S(=O)(Nc1ccc(Oc2ccncc2-c2ccnc(N[C@H]3CCCNC3)n2)cc1F)c1ccccc1Cl` [Compound 25, N-[2-Fluoro-4-[[3-[2-[[(3S)-3-piperidyl]amino]pyrimidin-4-yl]-4-pyridyl]oxy]phenyl] 2-chlorobenzenesulfonamide], with 11 to 100 nM; and `N[C@H]1CC[C@H](Nc2nccc(-c3cnccc3Oc3ccc(NS(=O)(=O)c4cccc5nccnc45)cc3F)n2)CC1` [Compound 56, N-[4-[[3-[2-[(1r,4r)(4-Aminocyclohexyl)amino]pyrimidin-4-yl]-4-pyridyl]oxy]-3-fluorophenyl] quinoxalin-5-ylsulfonamide], with 100 to 1000 nM; and `N[C@H]1CC[C@H](Nc2nccc(-c3cnccc3Oc3ccc(NS(=O)(=O)C4CC4)cc3F)n2)CC1` [Compound 36, N-[4-[[3-[2-[(1r,4r)(4-Aminocyclohexyl)amino]pyrimidin-4-yl]-4-pyridyl]oxy]-3-fluorophenyl] cyclopropanesulfonamide], with more than 5000 nM.

Turning to `CS(=O)(=O)N1CCC[C@H](Nc2nccc(-c3cnccc3Oc3ccc(NS(=O)(=O)c4ccccc4Cl)cc3F)n2)C1` [Compound 103], the Kd lay within 100 to 1000 nM. Under `Cc1ccc(C#N)cc1S(=O)(=O)Nc1ccc(Oc2ccncc2-c2ccnc(N[C@H]3CC[C@H](N)CC3)n2)c(F)c1` [Compound 35, N-(4-((3-(2-(((1r,4r)-4-aminocyclohexyl)amino)pyrimidin-4-yl)pyridin-4-yl)oxy)-3-fluorophenyl) 5-cyano-2-methylbenzenesulfonamide] stands 11 to 100 nM; under `N[C@H]1CC[C@H](Nc2nccc(-c3cccnc3Sc3ccc(NS(=O)(=O)c4ccccc4Cl)cc3F)n2)CC1` [Compound 108, N-(4-((3-(2-(((1r,4r)-4-Aminocyclohexyl)amino)pyrimidin-4-yl)pyridin-2-yl)thio)-3-fluorophenyl) 2-chlorobenzenesulfonamide], not above 10 nM; under `N[C@H]1CC[C@H](Nc2nccc(-c3ccc(I)cc3Oc3ccc(NS(=O)(=O)c4ccccc4Cl)cc3F)n2)CC1` [Compound 16, N-[4-[2-[2-[(1r,4r)(4-Aminocyclohexyl)amino]pyrimidin-4-yl]-5-iodophenoxy]-3-fluorophenyl] 2-chlorobenzenesulfonamide], 11 to 100 nM. Under `O=S(=O)(Nc1ccc(Oc2ccccc2-c2ccnc(N[C@H]3CCCNC3)n2)c(F)c1)c1ccccc1Cl` [Compound 5, N-[3-Fluoro-4-[2-[2-[[(3S)-3-piperidyl]amino]pyrimidin-4-yl]phenoxy]phenyl] 2-chlorobenzenesulfonamide] stands not above 10 nM; under `N[C@H]1CC[C@H](Nc2nccc(-c3ccc(C4CC4)cc3Oc3ccc(NS(=O)(=O)c4ccccc4Cl)cc3F)n2)CC1` [Compound 19, N-[4-[2-[2-[(1r,4r)(4-Aminocyclohexyl)amino]pyrimidin-4-yl]-5-cyclopropylphenoxy]-3-fluorophenyl] 2-chlorobenzenesulfonamide], 11 to 100 nM; under `N[C@H]1CC[C@H](Nc2nccc(-c3ccc(-c4ccccc4)cc3Oc3ccc(NS(=O)(=O)c4ccccc4Cl)cc3F)n2)CC1` [Compound 18, N-[4-[2-[2-[(1r,4r)(4-Aminocyclohexyl)amino]pyrimidin-4-yl]-5-phenylphenoxy]-3-fluorophenyl] 2-chlorobenzenesulfonamide], more than 5000 nM. Then `N[C@H]1CC[C@H](Nc2nccc(-c3cnccc3Oc3cc(Cl)c(NS(=O)(=O)c4ccccc4)c(Cl)c3)n2)CC1` [Compound 63, N-[4-[[3-[2-[(1r,4r)(4-Aminocyclohexyl)amino]pyrimidin-4-yl]-4-pyridyl]oxy]-2,6-dichlorophenyl] benzenesulfonamide], with 1000 to 5000 nM; and `N[C@H]1CC[C@H](Nc2nccc(-c3cccnc3Sc3ccc(NS(=O)(=O)c4ccccc4)cc3F)n2)CC1` [Compound 110, N-(4-((3-(2-(((1r,4r)-4-Aminocyclohexyl)amino)pyrimidin-4-yl)pyridin-2-yl)thio)-3-fluorophenyl) benzenesulfonamide], with 11 to 100 nM; and `CN1CC2(CC(Nc3nccc(-c4cnccc4Oc4ccc(NS(=O)(=O)c5ccccc5Cl)cc4F)n3)C2)C1` [Compound 99], with 100 to 1000 nM. Turning to `N[C@H]1CC[C@H](Nc2nccc(-c3cnccc3Oc3ccc(NS(=O)(=O)Cc4ccccc4)cc3F)n2)CC1` [Compound 44, N-[4-[[3-[2-[(1r,4r)(4-Aminocyclohexyl)amino]pyrimidin-4-yl]-4-pyridyl]oxy]-3-fluorophenyl] phenylmethanesulfonamide], the Kd was in the range of 1000 to 5000 nM. Under `O=S(=O)(Nc1ccc(Oc2ccncc2-c2ccnc(NCCNCCO)n2)c(F)c1)c1ccccc1Cl` [Compound 97] stands 100 to 1000 nM. Then `CN(C)CCNc1nccc(-c2cnccc2Oc2ccc(NS(=O)(=O)c3ccccc3Cl)cc2F)n1` [Compound 85], with 100 to 1000 nM; and `O=S(=O)(Nc1ccc(Oc2ccncc2-c2ccnc(NC3CN(C4COC4)C3)n2)c(F)c1)c1ccccc1Cl` [Compound 101], with 11 to 100 nM; and `N[C@H]1CC[C@H](Nc2nccc(-c3cnccc3Oc3ccc(NS(=O)(=O)c4ccc(CCO)cc4F)c(F)c3)n2)CC1` [Compound 84, N-[4-[[3-[2-(1r,4r)[(4-Aminocyclohexyl)amino]pyrimidin-4-yl]-4-pyridyl]oxy]-2-fluorophenyl] 2-fluoro-4-(2-hydroxyethyl)benzenesulfonamide], with 100 to 1000 nM.

Regarding `N[C@H]1CC[C@H](Nc2nccc(-c3cnccc3Oc3ccc(NS(=O)(=O)c4ccccc4Br)cc3F)n2)CC1` [Compound 53, N-[4-[[3-[2-[(1r,4r)(4-Aminocyclohexyl)amino]pyrimidin-4-yl]-4-pyridyl]oxy]-3-fluorophenyl] 2-bromobenzenesulfonamide], the Kd was not above 10 nM.

As to `NC(=O)c1ccc(S(=O)(=O)Nc2ccc(Oc3ccncc3-c3ccnc(N[C@H]4CC[C@H](N)CC4)n3)c(F)c2)cc1` [Compound 38, 4-(N-(4-((3-(2-(((1r,4r)-4-aminocyclohexyl)amino)pyrimidin-4-yl)pyridin-4-yl)oxy)-3-fluorophenyl)sulfamoyl) benzamide], the Kd is 100 to 1000 nM. Then `N[C@H]1CC[C@H](Nc2nccc(-c3cnccc3Oc3ccc(NS(=O)(=O)c4cc(Cl)c(Br)cc4F)cc3F)n2)CC1` [Compound 58, N-[4-[[3-[2-[(1r,4r)(4-Aminocyclohexyl)amino]pyrimidin-4-yl]-4-pyridyl]oxy]-3-fluorophenyl] 4-bromo-5-chloro-2-fluorobenzenesulfonamide], with 11 to 100 nM. On to `N[C@H]1CC[C@H](Nc2nccc(-c3cnccc3Oc3ccc(NS(=O)(=O)c4ccccc4)cc3F)n2)CC1` [Compound 37, N-[4-[[3-[2-[(1r,4r)(4-Aminocyclohexyl)amino]pyrimidin-4-yl]-4-pyridyl]oxy]-3-fluorophenyl] benzenesulfonamide], for which the Kd was in the range of 11 to 100 nM. For the compound `Cc1cc(C)c(S(=O)(=O)Nc2ccc(Oc3ccncc3-c3ccnc(N[C@H]4CC[C@H](N)CC4)n3)c(F)c2)c(C)c1` [Compound 55, N-[4-[[3-[2-[(1r,4r)(4-Aminocyclohexyl)amino]pyrimidin-4-yl]-4-pyridyl]oxy]-3-fluorophenyl] 2,4,6-trimethylbenzenesulfonamide], the Kd lay in the range of 100 to 1000 nM.

With `CN1CC(Nc2nccc(-c3cnccc3Oc3ccc(NS(=O)(=O)c4ccccc4Cl)cc3F)n2)C1` [Compound 102], the Kd lay in the range of 11 to 100 nM. Then `CN(CCNc1nccc(-c2cnccc2Oc2ccc(NS(=O)(=O)c3ccccc3Cl)cc2F)n1)S(C)(=O)=O` [Compound 100], with not above 10 nM. Then `O=S(=O)(Nc1ccc(Oc2ccncc2-c2ccnc(N[C@H]3CCCNC3)n2)c(F)c1)c1ccccc1` [Compound 59, N-[3-Fluoro-4-[[3-[2-[[(3S)-3-piperidyl]amino]pyrimidin-4-yl]-4-pyridyl]oxy]phenyl] benzenesulfonamide], with 11 to 100 nM.

These data come from patent US20260234112A1, “COMPOUNDS, COMPOSITIONS, AND METHODS OF USE THEREOF” (Type6 Therapeutics, Inc., priority 2023, published 2026).
